# Measured values reported in patent US20240091328A1, “FORMULATIONS AND METHODS FOR MHC-I RESTRICTED EPITOPE IMMUNIZATION” (The Research Foundation for The State University of New York, priority 2021, published 2024).
# Structures can show the parent of a compound that is named as a salt.
# Tests used:
# CT26 cells = assay: Experimental lung metastasis tumor model, CT26; type: in vivo, BALB/c mice; settings: 1000 ng (total) peptides with CPQ, 1 and 8 days after i.v. CT26
# Procedure: Tumor challenge: For the prophylactic vaccine tumor model, mice were vaccinated on day 0 and 7, and challenged on day 14. For testing the long-term protection of vaccine, mice were challenged on day 80. For the therapeutic vaccine tumor model, mice were inoculated with tumor cells subcutaneously on day 0, and then vaccinated with indicated vaccine on days 5 and 12. Tumor growth was monitored three times a week and tumor sizes were calculated by equation: Tumor volume=length×width^2/2. Animals were euthanized when the tumor sizes reached 1 cm in diameter or when animals developed an ulceration. For the experimental lung metastasis tumor model, animals were injected intravenously via tail vein with tumor cells on day 0, then were left untreated or treated with intramuscular injection with the indicated vaccines on day 2 and 9 for the A5 vaccine studies or day 1 and 8 for the RragcL385P, Tmem5S71N or EML5G44R peptide screening studies. Lungs were excised and stained with Bouin's solution (Sigma Catalog: HT10132) on day 18 for mice injected with CT26 cells and on day 16 for mice injected with 4T1 cells. Tumor nodules were counted manually and lung weights were measured.
# [1] = system: IFN-γ producing CD8^+ T cells; assay: Intracellular IFN-γ in CD8+ T cells of re-stimulated PBMCs; type: in vivo, C57BL/6 mice; settings: multivalent E6/E7 vaccine, 100 ng each peptide
# Procedure: The E6 and E7 genes of TC-1 cells were sequenced from extracted DNA using Sanger sequencing. Six predicted H-2K^b- and H-2D^b-restricted epitopes within the top percentile of MHC-I binders were identified using a neural network simulation algorithm. […] These 6 peptides were combined with CPQ to form a single multivalent vaccine for mice and the immunogenicity of each peptide were assessed by Interferon gamma (IFN-γ production after individual peptide stimulation of collected peripheral blood mononuclear cells (PBMCs). Mice were then challenged with TC-1 cells subcutaneously to assess the tumor protection of the vaccine (FIG. 21A).
# Collected PBMCs were re-stimulated with the epitope candidates that comprised the multivalent vaccine after which CD8^+ T cells were assessed for intracellular IFN-γ production, indicating the induction of Ag-specific CD8^+ T cells. […] When PBMCs from mice injected with the non-particle forming 2HPQ/peptides were re-stimulated with the peptides, none induced IFN-γ producing CD8^+ T cells (FIG. 21E).
# [2] = system: IFN-γ and TNF-α producing CD8^+ T cells; assay: Intracellular IFN-γ / TNF-α staining of splenocytes after antigen re-stimulation; type: in vivo, BALB/c mice; settings: mice vaccinated with CPQ and 20 RENCA peptides
# Procedure: For Intracellular staining: 100 μL of 1×10^6 splenocytes were seeded in a flat bottom 96 wells plate and stimulated with 10 μg/mL antigen for 15-18 hours in the cell culture incubator. Then Brefeldin A was added to the plates with a dilution of 1000× for another 5 hours. Cells were transferred to a round bottom 96 wells plate and centrifuged at 1350 rpm for 3 mins, the cell pellets were washed twice and stained with 500× live/dead fixable dye, 200× diluted APC anti-mouse CD8, 200× diluted FITC anti-mouse CD4, 200× diluted PE/Cy7 anti-mouse CD62L and 200× diluted PerCP/Cy5.5 […] 25 min at 4° C. with shaking. Cells were washed twice and fixed and permeabilized by fixation/permeabilization buffer for 20 min at 4° C. Cells were washed twice with perm wash buffer and stained with 200× diluted pacific blue anti-mouse IFN-γ and 200× diluted PE anti-mouse TNF-α for 30 min on ice. Cells were washed twice by perm/wash buffer for flow cytometry.
# RENCA cells [3] = assay: Cell lysis by splenocyte effector cells, LDH release, RENCA targets; type: cell-based, mouse; settings: single peptide vaccine
# Procedure: FIG. 20. […] BALB/c mice were immunized with CPQ/peptide vaccine on day 0 & 7, then inoculated with RENCA cells subcutaneously on day 14. (A) Tumor sizes of mice vaccinated with CPQ admixed with indicated peptide 18 days post tumor inoculation. Splenocytes were prepared 18 days post tumor inoculation and cultured in vitro for 5 days then stimulated with antigens and served as Effector cells (E), tumor cells were target cells (T). Effector cells were incubated with target cells for 5 hours, then specific lysis was analyzed by the nonradioactive LDH release assay by following the manufacturer's instructions. Percent cell lysis of RENCA cells (B) and percent cell lysis of irrelevant TC-1 cells (C). Error bars show mean+/−std. dev. for n=5 independent experiments.
# For Cytotoxic T lymphocyte (CTL) cytotoxicity assay, isolated splenocytes were cultured in the cell culture medium and stimulated by mouse IL-2 (Pepro tech; catalog: 212-12; 10 IU/mL) and antigens (10 μg/mL) for 5 days to use as the effector cells. 5000 CT26 cells were seeded in a 96 wells plate and pulsed with 10 μg/mL antigens for 1 hour, then splenocytes were added to the plate at different E:T ratios for 5 hours. The cytotoxicity of splenocytes on tumor cells was assessed by lactate dehydrogenase (LDH) release using Non-Radioactive Cytotoxicity Assay Kit (Promega; catalog: G1780) according to manufacturer instructions.
# RENCA cells [4] = assay: Prophylactic vaccine tumor model, subcutaneous RENCA challenge; type: in vivo, BALB/c mice; settings: single peptide with CoPoP liposome, days 0 and 7, RENCA day 14
# Procedure: Multivalent vaccine was prepared by first incubate all 20 peptides with CPQ and 2HPQ liposome for a hour at room temperature with a mass ratio of 1:4. The binding percentage of peptides was assessed by peptide filtration assay. […] There was no significant change of sizes of liposome before or after binding, which were around 100 nm (FIG. 19B). The polydispersity index of liposomes is smaller than 0.25 (FIG. 19C). Mice were vaccinated with CPQ/peptides on day0 & 7, the injection dose is 50 ng per peptide and lug total peptide per mouse. Mice were then challenged with RENCA cells subcutaneously on day14.
# To confirm which peptide was responsible to the anti-tumor efficacy of the vaccine, we admixed single peptide with CoPoP liposome as a vaccine to inject BALB/c mice. These 20 vaccines were injected to 20 groups of BALB/c mice on day 0 & 7, RENCA cells were inoculated on day14.
# Tumor challenge: For the prophylactic vaccine tumor model, mice were vaccinated on day 0 and 7, and challenged on day 14. For testing the long-term protection of vaccine, mice were challenged on day 80. […] Tumor growth was monitored three times a week and tumor sizes were calculated by equation: Tumor volume=length×width^2/2. […] Tumor nodules were counted manually and lung weights were measured.
# [5] = system: RAW264.7 murine macrophage cells; assay: In vitro cell uptake of A5-HiLyte488, macrophages; type: cell-based, mouse; settings: cells pre-incubated with inhibitor 10 μg/mL for an hour, CPQ/A5
# Procedure: For in vitro cell uptake studies, RAW264.7 cells (2.5×10^5 per well) and BMDCs (2.5×10^5 per well) were cultured in a 24-well plates overnight, then treated with CPQ/A5-HiLyte488, 2HPQ/A5-HiLyte488 and PBS/A5-HiLyte488 (peptide concentration of 1 μg/mL) for 10 min, 30 min or an hour. For phagocytosis and endocytosis inhibitor study, cells were first pre-incubated with cytochalasin B (10 μg/ml) or chlorpromazine (10 μg/mL) for an hour before the cell uptake study. Cells were washed and lysed with 0.1% Triton X-100 and 10 mM dithiothreitol (DTT). The fluorescence signals were measured before and after adding DTT. Cellular A5-HiLyte488 uptakes were calculated by preparing an A5-HiLyte488 standard curve.
# TC-1 cells [6] = assay: Prophylactic vaccine tumor model, subcutaneous TC-1 challenge; type: in vivo, C57BL/6 mice; settings: days 0 and 7, challenge day 14
# Source text: To determine immunogenicity, C57BL/6 mice were then vaccinated intramuscularly with the multivalent vaccine on days 0 & 7, and peripheral blood mononuclear cells (PBMCs) were collected and mice challenged with TC-1 tumor cells on day 14. […] Thus, the presentation of the peptides in the form of a particle, even with identical amounts of QS-21 and MPLA, appeared to be important for inducing memory CD8^+ T cells.
# Next, to determine which of the peptide epitopes provided anti-tumor activity, peptides were admixed individually with CPQ or 2HIPQ liposomes (FIG. 22A). Individually, all of the peptides effectively bound to CPQ liposomes, but not to 2HIPQ liposomes lacking cobalt (FIG. 22B). Liposome size remained ˜100 nm after binding with E6 and E7 peptides (FIG. 22C). Next, mice were vaccinated with the peptides admixed with CPQ on days 0 & 7 at a peptide dose of 500 ng. Each mouse was then challenged with TC-1 cells on day 14. […]
# Tumor challenge: For the prophylactic vaccine tumor model, mice were vaccinated on day 0 and 7, and challenged on day 14. […] Tumor growth was monitored three times a week and tumor sizes were calculated by equation: Tumor volume=length×width^2/2. […] Tumor nodules were counted manually and lung weights were measured.
# TC-1 cells [7] = assay: Therapeutic vaccine tumor model, subcutaneous TC-1; type: in vivo, C57BL/6 mice; settings: E7HHH49-57 admixed with poly(I:C), up to 20 μg peptide
# Source text: (§1) FIG. 23. Immunization with E7HHH49-57-admixed with CPQ inhibits tumor growth in a therapeutic setting more potently than poly(I:C). C57BL/6 mice were inoculated with TC-1 cells subcutaneously on day 0; then different vaccines were given 2 days post-tumor inoculation. Blood was collected 18 days post-tumor inoculation for CD8^+ T cell analyses. (A) Tumor growth of mice that vaccinated with indicated vaccine. (B) Tumor sizes of mice on day 19. (C) Survival of mice. (D) Percentage of CD8^+E749-57 tet^+ cells in the blood. Error bars show mean+/−std. dev. for n=5 per group. * p<0.05, ** p<0.01 and **** p<0.0001, analyzed by (C) long rank test or (D) one-way ANOVA with Bonferroni multiple comparisons post-test.
# (§2) Since CPQ/E7HHH49-57 was effective in a prophylactic setting, we next assessed the vaccine on established TC-1 tumors, which is also the setting in which most cancer vaccines would be initially tested clinically. Poly(I:C) was used as an adjuvant comparator. For poly(I:C), the synthetic short peptide dose ranged from […] per mouse while the poly(I:C) dose remained fixed at […]. For the CPQ liposome adjuvant, the peptide dosing varied from […] per mouse. Given that the ratio of liposomes to peptide was fixed, this corresponds to a 3D6A-PHAD dose and QS-21 dose ranging from 1.6 to 0.16 μg, along with a CoPoP dose ranging from 4 to 0.4 μg. […]
# [8] = system: E749-57 specific CD8^+ T cells; assay: E749-57 tetramer staining of CD8+ T cells in blood; type: in vivo, C57BL/6 mice; settings: E7HHH49-57 admixed with poly(I:C), 19 days post-tumor inoculation
# Source text: as §1, with “Blood was collected 18 days post-tumor inoculation for CD8^+ T cell analyses.” left out
# as §2
molecule,measurement,setting,value
Eml5G44R: 9-mer neoantigen peptide; tagged forms CT71 and 3his-CT71 (VYFVAGVRV),Lung nodules,CT26 cells,no significant difference
H3-TLHEYMLDL (HHHTLHEYMLDL; H3 N-terminal flank; E76-14),IFN-γ producing cells of CD8+ T cells over background after peptide re-stimulation of PBMCs,[1],higher percentage
3His-GYHESGHAI (HHHGYHESGHAI; N-terminal 3His tag; Renca_8),IFN-γ producing CD8^+ T cells in the spleen after stimulation with individual peptide,[2],~5%
3His-AYTTQREEL (HHHAYTTQREEL; N-terminal 3His tag; Renca_2),IFN-γ producing CD8^+ T cells in the spleen after stimulation with individual peptide,[2],around 2%
same,Lysis of RENCA cells by T cells of vaccinated mice,RENCA cells [3],induced functional T cells that specific targets to RENCA cells
same,"Tumor growth, single peptide vaccine",RENCA cells [4],inhibited tumor growth
C=C1[C@@H](C)[C@H]2[C@H](Cc3ccccc3)NC(=O)[C@]23OC(=O)/C=C/[C@H](O)CCC[C@@H](C)C/C=C/[C@H]3[C@@H]1O [cytochalasin B],A5 peptide uptake by macrophages in the presence of inhibitor,[5],significantly less
H3-RAHYNIVTF (HHHRAHYNIVTF; H3 N-terminal flank; E749-57),IFN-γ producing cells of CD8+ T cells over background after peptide re-stimulation of PBMCs,[1],higher percentage
same,Tumor-free survival maintained,TC-1 cells [6]; 500 ng peptide with CPQ,at least 60 days
same,"Tumor growth after TC-1 challenge, single peptide with CPQ",TC-1 cells [6]; 500 ng peptide,inhibited tumor growth
H3-STHVDIRTL (HHHSTHVDIRTL; H3 N-terminal flank; E771-79),IFN-γ producing cells of CD8+ T cells over background after peptide re-stimulation of PBMCs,[1],higher percentage
Tmem5S71N: 9-mer neoantigen peptide; tagged forms CT96 and 3his-CT96 (VVEANWTML) (HHHVVEANWTML; N-terminal 3His tag; 3his-CT96/Tmem5S71N),Lung nodules,CT26 cells,no significant difference
Polyinosinic:polycytidylic acid [poly(I:C)],Time within which tumors of all mice reached the 1 cm endpoint,TC-1 cells [7],≤ 60 days
same,Ag-specific CD8^+ T cells in the blood,[8],almost no
"CN(C)CCCN1c2ccccc2Sc2ccc(Cl)cc21 [chlorpromazine, Chlorpromazine hydrochloride]",A5 peptide uptake by macrophages in the presence of inhibitor,[5],significantly less
